The text below walks through data of patent publication US20130053337A1, “GUANIDINYLATED AMINOGLYCOSIDE-LIPID CONJUGATES” (UNIVERSITY OF MANITOBA, priority 2010, published 2013).

The MIC is the smallest concentration in the dilution series that meets the test's criterion for growth inhibition.

Converted amounts (≈) assume the structure as drawn. A value given as a limit tells only on which side of the number the result lay.

The subject of one data set is S. aureus ATCC 29213. Description: MIC, broth macrodilution (CLSI). It counts as cell-based, Staphylococcus aureus. The settings on record: S. aureus ATCC29213. How it is done: (§1) All experiments were performed in duplicate.
(§2) Bacterial isolates studied included both reference strains obtained from the American Type Culture Collection (ATCC) as well as clinical strains obtained from the CAN-ICU study which was a national surveillance study assessing the prevalence of antimicrobial resistant pathogens in Canadian intensive care units (Zhanel et al., 2008). Isolates were kept frozen in skim milk at −80° C. until minimum inhibitory concentration (MIC) testing was carried out. Following two subcultures from frozen stock, the in vitro activities of peptides were determined by macrobroth dilution in accordance with the Clinical and Laboratory Standards Institute (CLSI) 2006 guidelines (Zhanel et al., 2008). Stock solutions of peptides were prepared and dilutions made as described by CLSI. Test tubes contained doubling antimicrobial dilutions of cation adjusted Mueller-Hinton broth and inoculated to achieve a final concentration of approximately 5×10^5 cfu/ml then incubated in ambient air for 24 hours prior to reading. Colony counts were performed periodically to confirm inocula. Quality control was regularly performed using ATCC QC organisms.

The subject of the next data set is MRSA ATCC 33592. The data set is described as follows: MIC, broth macrodilution (CLSI). The data set is classed as cell-based, methicillin-resistant Staphylococcus aureus. The settings on record: MRSA ATCC33592. Here is the method:
as §1, §2

The subject of data set [1] is S. epidermidis ATCC 14990. Description: MIC, broth macrodilution (CLSI). The settings on record: S. epidermidis ATCC14990. The data set is classed as cell-based, Staphylococcus epidermidis. How it is done:
as §1, §2

Data set [2] has as its system MRSE CAN-ICU 61589. Description: MIC, broth macrodilution (CLSI). It counts as cell-based, methicillin-resistant Staphylococcus epidermidis. How it is done: as §1, §2
A further data set has as its system E. faecalis ATCC 29212. The data set is described as follows: MIC, broth macrodilution (CLSI). The data set is classed as cell-based, Enterococcus faecalis. The settings on record: E. faecalis ATCC29212. Here is the method: as §1, §2
A further data set has as its system E. faecium ATCC 27270. The data set is described as follows: MIC, broth macrodilution (CLSI). The data set is classed as cell-based, Enterococcus faecium. The settings on record: E. facium ATCC27270. Here is the method:
as §1, §2

The next data set has as its system S. pneumoniae ATCC 49619. Description: MIC, broth macrodilution (CLSI), broth with 5% laked horse blood. The data set is classed as cell-based, Streptococcus pneumoniae. The conditions noted are these: S. pneumoniae ATCC49619. How it is done:
as §1, §2

Data set [3] relates to E. coli (amikacin MIC 32 mg/L) CAN-ICU 63074. The data set is described as follows: MIC, broth macrodilution (CLSI). The settings on record: E. coli CAN-ICU 63074. The data set is classed as cell-based. How it is done:
as §1, §2

Data set [4] has as its system E. coli (gentamicin-resistant) CAN-ICU 61714. Description: MIC, broth macrodilution (CLSI). It counts as cell-based. The conditions noted are these: E. coli CAN-ICU 61714. How it is done:
as §1, §2

In another data set the test system is E. coli ATCC 25922. The data set is described as follows: MIC, broth macrodilution (CLSI). It counts as cell-based. The conditions noted are these: E. coli ATCC25922. How it is done: as §1, §2
Data set [5] has as its system P. aeruginosa (gentamicin-resistant) CAN-ICU 62308. The data set is described as follows: MIC, broth macrodilution (CLSI). It counts as cell-based. The conditions noted are these: P. aeruginosa CAN-ICU 62308. Here is the method:
as §1, §2

For a further data set, the system named is P. aeruginosa ATCC 27853. The data set is described as follows: MIC, broth macrodilution (CLSI). The data set is classed as cell-based. The settings on record: P. aeruginosa ATCC27853. Here is the method: as §1, §2
The test system of data set [6] is sheep red blood cell (erythrocytes). The data set is described as follows: Hemolytic assay (in vitro toxicity). The conditions noted are these: 100 mg/L; sheep erythrocytes; percent hemolysis. How it is done:
Antibacterial activity against Gram-positive and Gram-negative microorganisms was tested via broth macrodilution tests using CLSI methodology (Zhanel et al., 2008). Stock solutions of cationic lipids in water were brought to a concentration of 512 mg/L. Organisms were subcultured and isolated on blood agar, suspended in 3 mL of Mueller-Hinton broth at the turbidity of a […], and diluted to approximately 10^5 cfu/mL before introduction into tubes containing serially diluted lipopeptide antibiotic in Mueller-Hinton broth. Activity testing against S. pneumoniae used broth supplemented with laked horse blood to give 5% horse blood in experimental tubes. Turbidity of lipopeptide solution in broth required creation of control tubes lacking organisms serving as turbidity controls. All tubes were incubated overnight for 16-20 h at 37° C. […] All experiments were performed in duplicate. In-vitro toxicity was determined using a sheep red blood cell hemolytic assay as previously described (Dathe et al., 1996).
In vitro toxicity was determined using a sheep red blood cell (erythrocytes) hemolytic assay (Dathe et al., 1996). […] Erythrocytes were washed and resuspended in Tris buffered saline. The cell suspension was combined with varying concentrations (low to very high) of test and control antimicrobials (e.g., aminoglycosides and APTCs). The samples were centrifuged and the absorbance of the supernatants measured at 540 nm. Tris buffered saline and Triton X were used as negative and positive controls, respectively. The toxicity was assessed by percent hemolysis.

In data set [7] the test system is methicillin-resistant S. aureus (MRSA). The settings on record: Bera et al., 2008; cited from earlier work.
Data set [8] concerns E. coli (amikacin MIC 32 mg/L) CAN-ICU 63074. The settings on record: E. coli CAN-ICU 63074; Zhanel et al., 2008; cited from earlier work.
Data set [9] relates to MRSE CAN-ICU 61589. The conditions noted are these: Zhanel et al., 2008; cited from earlier work.
Data set [10] deals with E. coli (gentamicin-resistant) CAN-ICU 61714. The settings on record: E. coli CAN-ICU 61714; Zhanel et al., 2008; cited from earlier work.
Data set [11] has as its system P. aeruginosa (gentamicin-resistant) CAN-ICU 62308. The conditions noted are these: P. aeruginosa CAN-ICU 62308; Zhanel et al., 2008; cited from earlier work.

Regarding `CCCCCCCCCCCCCCCC(=O)NCC1OC(OC2C(N)CC(N)C(OC3OC(CN)C(O)C(O)C3O)C2O)C(O)C(N)C1O.O=C(O)C(F)(F)F.O=C(O)C(F)(F)F.O=C(O)C(F)(F)F.O=C(O)C(F)(F)F` (stereo not drawn) [Compound 15, 1,3,6′,3″-Tetraammonium-6″-deoxy-6″-N-(hexadecanoyl)-kanamycin-tetrakis-(trifluoroacetate)], the MIC came to 8 µg/mL with S. aureus ATCC 29213; 16 µg/mL with MRSA ATCC 33592; 2 µg/mL in data set [1]; 2 µg/mL against MRSE CAN-ICU 61589 [2]; 8 µg/mL against E. faecalis ATCC 29212; 8 µg/mL with E. faecium ATCC 27270. The MIC in the data set on S. pneumoniae ATCC 49619 came out at 64 µg/mL; in data set [3], 32 µg/mL; in data set [4], 32 µg/mL; with E. coli ATCC 25922 it was 32 µg/mL; in [5], 64 µg/mL; in the data set on P. aeruginosa ATCC 27853, 64 µg/mL. The “hemolytic activity at 100 mg/L” value in data set [6] is given as 20%.
On to `CCCCCCCCCCCCCCCC(=O)NCC1OC(OC2C(NC(=N)N)CC(NC(=N)N)C(OC3OC(CNC(=N)N)C(O)C(O)C3O)C2O)C(O)C(NC(=N)N)C1O.O=C(O)C(F)(F)F.O=C(O)C(F)(F)F.O=C(O)C(F)(F)F.O=C(O)C(F)(F)F` (stereo not drawn) [Compound 16, 1,3,6′,3″-Tetraammonium-guanidinyl-6″-deoxy-6″-N-(hexadecanoyl)-kanamycin-tetrakis-(trifluoroacetate)], for which the MIC is 16 µg/mL in the data set with S. aureus ATCC 29213; 8 µg/mL against MRSA ATCC 33592; 8 µg/mL in [1]; 8 µg/mL with MRSE CAN-ICU 61589 [2]; 16 µg/mL with E. faecalis ATCC 29212; 16 µg/mL against E. faecium ATCC 27270. Also, the MIC in the data set with S. pneumoniae ATCC 49619 was 128 µg/mL; in data set [3], 64 µg/mL; in data set [4], 128 µg/mL; with E. coli ATCC 25922, 64 µg/mL; in [5], 64 µg/mL; against P. aeruginosa ATCC 27853 it was 256 µg/mL. Besides, in data set [6], the “hemolytic activity at 100 mg/L” value is reported as 6.7%.
Regarding `NC[C@@H]1O[C@H](O[C@H]2[C@@H](O)[C@H](O[C@@H]3[C@@H](O)[C@H](N)C[C@H](N)[C@H]3O[C@H]3O[C@H](CN)[C@@H](O)[C@H](O)[C@H]3N)O[C@@H]2CO)[C@H](N)[C@@H](O)[C@@H]1O` [Neomycin B, reference compound], the MIC in the data set on S. aureus ATCC 29213 is 1 µg/mL (≈ 1.63 µM); in the data set with MRSA ATCC 33592, 256 µg/mL (≈ 416 µM); in data set [1] it was 0.25 µg/mL (≈ 0.407 µM); against MRSE CAN-ICU 61589 [2] it was 0.5 µg/mL (≈ 0.813 µM); against S. pneumoniae ATCC 49619 it was 32 µg/mL (≈ 52.1 µM); in data set [4] it was 8 µg/mL (≈ 13 µM). Also, the MIC was 4 µg/mL (≈ 6.51 µM) in the data set on E. coli ATCC 25922, 512 µg/mL (≈ 833 µM) in [5], 512 µg/mL (≈ 833 µM) in the data set on P. aeruginosa ATCC 27853 and 256 µg/mL (≈ 416 µM) in data set [7]. Further, in [6], the “hemolytic activity at 100 mg/L” value is recorded as below 0.3%.
In the case of `NCC[C@H](O)C(=O)N[C@@H]1C[C@H](N)[C@@H](O[C@H]2O[C@H](CN)[C@@H](O)[C@H](O)[C@H]2O)[C@H](O)[C@H]1O[C@H]1O[C@H](CO)[C@@H](O)[C@H](N)[C@H]1O` [amikacin], the “MIC (strain description)” value in data set [8] is 32 µg/mL (≈ 54.6 µM).
Turning to `Cc1nnc(SCC2=C(C(=O)O)N3C(=O)[C@@H](NC(=O)Cn4cnnn4)[C@H]3SC2)s1` [cefazolin], in the data set with MRSE CAN-ICU 61589 [9], the “MIC (strain description)” value is above 32 µg/mL.
As to Gentamicin [reference compound], the minimum inhibitory concentration (MIC) with S. aureus ATCC 29213 came to 1 µg/mL; in the data set with MRSA ATCC 33592, 2 µg/mL; in data set [1], 0.25 µg/mL; in the data set with MRSE CAN-ICU 61589 [2], 32 µg/mL; with S. pneumoniae ATCC 49619, 4 µg/mL; in data set [3] it was 8 µg/mL. In addition, the MIC in [4] was found to be 128 µg/mL; in the data set with E. coli ATCC 25922 it was 1 µg/mL; in [5], 128 µg/mL; in the data set on P. aeruginosa ATCC 27853, 8 µg/mL. For the same compound, the “MIC (strain description)” value in [10] and in data set [11] was above 32 µg/mL each time.
